Laboratory results from US20190313614A1, “MRAP2 KNOCKOUTS” (EFFSTOCK, LLC, priority 2013, published 2019).

How the values were obtained:
[1] = system: melanocortin receptor (Mc4r and Mc3r); assay: Food intake following saline or MTII in Mrap2+/+ vs. Mrap2−/− mice; type: in vivo; conditions: young (age 38-45 days) Mrap2−/− mice; 2 μg/g body weight, i.p.
From the text: FIG. 5A depicts images of the appearance of male and female Mrap^+/+ and Mrap2^−/− mice. Left panel: External appearance on standard chow (age 175 days). Upper right: mesenteric fat in female Mrap^+/+ and Mrap2^−/− mice (age 175 days). Lower right: Brown adipose tissue (BAT) in female Mrap^+/+ and Mrap2^−/− mice (age 175 days). FIG. 5B depicts the level of serum leptin in Mrap2^+/+ and Mrap2^−/− mice. Left panel: Mrap2^+/+ vs. Mrap2^−/− ad libitum fed male (n=4 vs. 6) and female (n=8 vs. 4) mice (ages 302-349 days). Right panel: Mrap2^+/+ vs. Mrap2^−/− food-restricted, weight-matched male (n=4 vs. 6, weight=27.4±0.6 vs. 24.8±0.2 g), and female (n=4 vs. 6, weight=21.5±0.6 vs. 20.8±0.2 g) mice (ages 135-151 days). *p=0.005, **p<0.00001. FIG. 5C depicts the level of fasting serum insulin in Mrap2^+/+ and Mrap2^−/− male (n=4 vs. 6) and female (n=6 vs. 8) mice (ages 88-194 days). There was no significant difference between genotypes of either gender. FIG. 5D depicts the results of a glucose tolerance test (intraperitoneal) in Mrap2^+/+ and Mrap2^−/− male (n=4 vs. 6) and female (n=6 vs. 8) mice (ages 88-194 days). There was no significant difference between genotypes of either gender. FIG. 5E depicts levels of blood corticosterone in morning, evening, and following 30 minutes of restraint stress in Mrap2^+/+ and Mrap2^−/− male (n=4 vs. 3) and female (n=6 vs. 7) mice (ages 124-178 days). […]

Mc3r = molecular target: T1, Mc3r (Mus musculus, UniProt P33033); assay: Effect of Mrap2 on Mc3r signaling: cAMP reporter (CRELuc) activity in transfected CHO cells; type: cell-based; conditions: Mc3r+Mrap2 vs. Mc3r, at the two highest αMSH doses (0-10 nM, 5 h)
T1 construct: expressed in transfected cells; host or cells: CHO cells
From the text: FIG. 6A depicts graphs of food intake (left panel) and body weight (right panel) in female Mrap2^flox/flox vs. Sim1^Cre: Mrap2^flox/flox mice. Sim1^Cre::Mrap2^flox/flox mice were either ad libitum-fed or pair-fed starting at age 70 days (upward arrow) to ad libitum-fed Mrap2^flox/flox mice. […] FIG. 6B depicts graphs of body weights in mice with combined knockout of Mrap2 and Mc4r. Top panels: Body weights in mixed Mrap^+/−::Mc4r^+/− genotypes (male Mrap^+/−::Mc4r^+/−, n=10; Mrap^+/+::Mc4r^+/−, n=10; Mrap^+/−::Mc4r^+/+, n=8; Mrap^+/+::Mc4r^+/+, n=9; female Mrap^+/−: Mc4r^−/−, n=9; Mrap^+/+::Mc4r^−/−, n=12; Mrap^+/−::Mc4r^+/+, n=8; Mrap^+/+::Mc4r^+/+, n=8). Bottom panels: Body weights in mixed Mrap^−/−::Mc4r^−/− genotypes (male Mrap^−/−:Mc4r^−/−, n=9; Mrap^+/+::Mc4r^−/−, n=8; Mrap^−/−: Mc4r^+/+, n=8; Mrap^+/+::Mc4r^+/+, n=9; female Mrap^−/−::Mc4r^−/−, n=7; Mrap^+/+:::Mc4r^−/−, n=8; Mrap^−/−::Mc4r^+/+, n=9; Mrap^+/+:::Mc4r^+/+, n=8). *p<0.05, **p<0.001 by ANOVA. FIG. 6C depicts the results of co-immunoprecipitation assay between Mrap2 and Mc4r. Transfection into CHO cells of Myc-tagged Mrap2 and GFP-tagged Mc4r was followed by anti-Myc immunoprecipitation and anti-GFP immunoblotting. […] Right panel: cAMP activity of these same constructs, expressed as percent induction following 0-10 nM αMSH, relative to 0 nM αMSH. *p<0.0001, Mc3r+Mrap2 vs. Mc3r at same [αMSH], by ANOVA. […]

Mc4r = molecular target: T2, Mc4r (Mus musculus, UniProt P56450); assay: Mc4r bioassay for Mrap2 effect: cAMP reporter (CRELuc) activity in transfected CHO cells; type: cell-based; conditions: 0-10 nM αMSH, 5 h
T2 construct: expressed in transfected cells; host or cells: CHO cells (ATCC), transient transfection with pRC/CMV constructs, pCRE-Luc and pRL-TK
From the text: FIGS. 3A-3C depict the interaction between Mrap2 and Mc4r. […] Top right, Cre DNA analysis by PCR. […] Molecular weight marker (M) on right (bp). Top left, Mrap2 DNA analysis in Sim1^CreBAC::Mrap2^f/f and Mrap2^f/f mice by PCR. Both genotypes contain floxed, intact Mrap2 DNA in CX, HT, and BS (314 bp in upper electropherogram, and 1013 bp in lower electropherogram, molecular weight markers on left). Only Sim1^CreBAC::Mrap2^f/f mice contain Mrap2^Del (400 bp, lower electropherogram), and only in HT and BS, but not in CX, consistent with fluorescent reporter data. No PCR products are present without added DNA (H2O). Bottom, Mrap2 mRNA expression in Sim1^CreBAC::Mrap2^f/f and Mrap2^f/f mice by RT-PCR. Both genotypes express floxed, intact Mrap2 mRNA in CX, HT, and BS (247 bp). Only Sim1^CreBAC::Mrap2^f/f mice express Mrap2^Del mRNA (147 bp), and only in HT. Global Mrap2^Del/Del mice express Mrap2^Del mRNA in all 3 sites. FIG. 3B depicts graphs of body weights of Mrap2^+/+ (male n=6, female n=11), Mrap2^−/− (male n=11, female n=7), Mrap2^f/f (male n=8, female n=12) and conditional Sim1^CreBAC::Mrap2^f/f (male n=8, female n=7) mice, all age 133 days. *p=0.04, **p=0.007, ***p=0.0002, ****p<0.0001. FIG. 3C depicts graphs of the effect of Mrap2 on Mc4r signaling. Left panel: Level of cAMP reporter activity (CRELuc) in CHO cells alone, or co-transfected with Mc4r, with or without Mrap2 or the Mrap2 knockout construct, Mrap2delE3, 5 h following exposure to 0-10 nM αMSH (n=3/group). Right panel: cAMP activity of these same constructs, expressed as percent induction following 0-10 nM αMSH, relative to 0 nM αMSH. *p<0.0001, Mc4r+Mrap2 vs. Mc4r at same [αMSH], by ANOVA. For most data points, error bars are obscured by symbols.
The coding sequences of mouse Mrap2 and Mc4r were isolated by PCR of brain cDNA (Mrap2) or genomic DNA (Mc4r) (Table S4), subcloned into TOPO-pCRII™ (Invitrogen, Carlsbad, Calif.), sequence-verified, and ligated into pRC/CMV (Invitrogen, Carlsbad, Calif.). Mrap2delE3, identical to the product of Mrap2^−/− mice, was also created and ligated into pRC/CMV. […]

T2 sequence (P56450 whole entry): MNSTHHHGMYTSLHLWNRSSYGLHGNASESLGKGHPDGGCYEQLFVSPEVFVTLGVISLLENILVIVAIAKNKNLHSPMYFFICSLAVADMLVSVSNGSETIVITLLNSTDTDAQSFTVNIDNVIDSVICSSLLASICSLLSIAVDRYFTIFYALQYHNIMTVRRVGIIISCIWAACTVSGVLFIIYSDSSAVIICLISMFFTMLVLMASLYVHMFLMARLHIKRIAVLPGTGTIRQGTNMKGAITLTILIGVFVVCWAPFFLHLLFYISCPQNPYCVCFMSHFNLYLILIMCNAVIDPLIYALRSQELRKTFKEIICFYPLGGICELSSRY
T1 sequence (P33033 whole entry): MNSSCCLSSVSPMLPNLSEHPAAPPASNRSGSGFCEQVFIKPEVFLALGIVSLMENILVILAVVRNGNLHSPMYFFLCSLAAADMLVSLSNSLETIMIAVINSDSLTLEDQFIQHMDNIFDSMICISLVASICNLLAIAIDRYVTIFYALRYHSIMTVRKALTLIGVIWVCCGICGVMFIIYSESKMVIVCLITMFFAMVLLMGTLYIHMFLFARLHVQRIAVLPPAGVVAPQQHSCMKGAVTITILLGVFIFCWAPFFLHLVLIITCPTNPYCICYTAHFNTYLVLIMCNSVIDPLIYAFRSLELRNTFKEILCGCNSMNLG

signaling through Mc3r (cAMP reporter activity) (Mc3r) | increase above basal PKA activity (Mc4r; CHO cells co-transfected with Mc4r and Mrap2, relative to 0 nM αMSH) [fold] | increase above basal PKA activity (Mc4r; CHO cells with Mc4r alone) [fold] | increase above basal PKA activity (Mc4r; CHO cells with Mc4r plus the Mrap2 null construct Mrap2delE3) [fold] | Substance | anorectic response (food intake) [1]
– | – | – | – | acetyl-(Nle^4, Asp^5, D-Phe^7, Lys^10)-cyclo-[…]-MSH (4-10) amide acetate salt [MTII] | intact anorectic response
increased signaling | 5 | < 2 | < 2 | α-melanocyte stimulating hormone [αMSH] | –
